Measured values from ChEMBL document CHEMBL6182894, “Design, synthesis, and biological evaluation of quinolinyl-ureido-phenyl-hydrazide derivatives and quinolinyl-hydrazide derivatives as anticancer agents targeting Nur77-mediated ferroptosis” (Eur J Med Chem, 2025).
pIC50: −log10 of the molar value. Active and inactive are the calls of the source. The calls are words filed in the database; no cut-off is given here.

Assays:
[1] = system: MCF7; assay: Induction of ferroptosis in Nur77 knockout human MCF7 cells assessed as […] at 3 uM incubated for 24 hrs by BODIPYTM 581/591C11 probe based flow cytometry analysis; format: functional, cell-based
[2] = system: MCF7; assay: Induction of ROS production in Nur77 knockout human MCF7 cells at 3 uM incubated for 24 hrs by DCFH-DA staining based flow cytometric analysis; format: functional, cell-based
[3] = system: MCF7; assay: Upregulation of Nur77 protein expression in human MCF7 cells at 3 to 6 uM measured at 2 hrs by Western blot assay; format: functional, cell-based; conditions: dose 3-6 µM
[4] = system: HCT-116; assay: Antiproliferative activity against human HCT-116 cells assessed as inhibition of cell growth by MTT assay
[5] = system: MCF7; assay: Inhibition of colony formation in human MCF7 cells at 4.5 uM incubated for 3 days by crystal violet staining based analysis relative to control; format: functional; conditions: MCF7, 72 h, time 3 day
[6] = system: MCF7; assay: Antitumor activity against human MCF7 cells xenografted in nude BALB/c mouse assessed as tumor growth inhibition at 20 mg/kg/day, IG administered on alternative days for 21 days relative to control; format: functional; conditions: MCF7, po, 504 h, time 21 day, read-out: TGI
[7] = system: HepG2; assay: Induction of ferroptosis in Nur77 knockout human HepG2 cells assessed as increase in GPX4 expression at 3 uM incubated for 24 hrs by Western blot analysis; format: functional, cell-based
[8] = Toxicity in nude BALB/c mouse xenografted with human MCF7 cells assessed as appearance of intact hepatic lobules with central veins and cords of radiating hepatocytes at 10 to 20 mg/kg/day, IG administered on alternative days for 21 days by H and E staining analysis; format: organism-based; conditions: in vivo, po, 504 h, dose 10-20 mg/kg/day, time 21 day
[9] = system: MCF7; assay: Antitumor activity against human MCF7 cells xenografted in nude BALB/c mouse assessed as increase in Nur77 level in tumor at 10 to 20 mg/kg/day, IG administered on alternative days for 21 days by immunohistochemical analysis; format: functional, organism-based; conditions: dose 10-20 mg/kg/day, time 21.0 day
[10] = system: MCF7; assay: Induction of apoptosis in human MCF7 cells assessed as late apoptotic cells at 3 uM incubated for 24 hrs by Annexin V-FITC/PI staining based flow cytometry analysis (Rvb =0.86%); format: functional
[11] = system: MCF7; assay: Anticancer activity in human MCF7 cells assessed as cell viability at 3 uM in presence of DFO by MTT assay; format: functional, cell-based
[12] = system: MCF7; assay: Induction of apoptosis in human MCF7 cells assessed as late apoptotic cells at 6 uM incubated for 24 hrs by Annexin V-FITC/PI staining based flow cytometry analysis (Rvb =0.86%); format: functional
[13] = Cytotoxicity in HaCaT cells assessed as inhibition of cell growth by MTT assay; format: toxicity, cell-based; conditions: human
[14] = system: MCF7; assay: Antiproliferative activity against human MCF7 cells assessed as inhibition of cell growth at 50 uM by MTT assay relative to control; format: functional
[15] = system: MCF7; assay: cells; conditions: Homo sapiens, MCF7, 24 h
Description: Antiproliferative activity against human MCF7 cells assessed as inhibition of cell growth incubated for 24 hrs by MTT assay

[16] = system: MCF7; assay: Antitumor activity against human MCF7 cells xenografted in nude BALB/c mouse assessed as decrease in GPX4 level in tumor at 10 to 20 mg/kg/day, IG administered on alternative days for 21 days by immunohistochemical analysis; format: functional, organism-based; conditions: dose 10-20 mg/kg/day, time 21.0 day
[17] = system: BT-549; assay: cells; conditions: Homo sapiens, BT-549, 24 h
Description: Antiproliferative activity against human BT-549 cells assessed as inhibition of cell growth incubated for 24 hrs by MTT assay

[18] = system: MCF7; assay: Induction of ferroptosis in human MCF7 cells assessed as effect on SLC7A11 expression at 3 uM incubated for 24 hrs in presence of fer-1 by Western blot analysis; format: functional, cell-based
[19] = system: MCF7; assay: Antitumor activity against human MCF7 cells xenografted in nude BALB/c mouse assessed as tumor growth inhibition at 10 mg/kg/day, IG administered on alternative days for 21 days relative to control; format: functional; conditions: MCF7, po, 504 h, time 21 day, read-out: TGI
[20] = system: MCF7; assay: Induction of apoptosis in human MCF7 cells assessed as early apoptotic cells at 3 uM incubated for 24 hrs by Annexin V-FITC/PI staining based flow cytometry analysis (Rvb =0.82%); format: functional
[21] = system: MCF7; assay: Induction of apoptosis in human MCF7 cells assessed as viable cells at 6 uM incubated for 24 hrs by Annexin V-FITC/PI staining based flow cytometry analysis (reference value: 98.1%); format: functional; conditions: read-out: Activity
[22] = system: MCF7; assay: Upregulation of Nur77 protein expression in human MCF7 cells at 3 uM measured at 2 to 10 hrs by Western blot assay; format: functional, cell-based; conditions: time 2-10 hrs
[23] = Cmax in nude BALB/c mouse at 20 mg/kg, IG measured after 24 hrs; format: ADME, organism-based; conditions: in vivo, po
[24] = system: MCF7; assay: Induction of apoptosis in human MCF7 cells assessed as necrotic cells at 6 uM incubated for 24 hrs by Annexin V-FITC/PI staining based flow cytometry analysis (Rvb =0.2%); format: functional
[25] = system: HepG2; assay: Antiproliferative activity against human HepG2 cells assessed as inhibition of cell growth by MTT assay
[26] = system: MCF7; assay: Induction of apoptosis in human MCF7 cells assessed as necrotic cells at 3 uM incubated for 24 hrs by Annexin V-FITC/PI staining based flow cytometry analysis (Rvb =0.2%); format: functional
[27] = system: T47D; assay: Induction of ferroptosis in human T47D cells assessed as increase in malondialdehyde level at 1.5 to 4.5 uM incubated for 24 hrs by MDA assay; format: functional, cell-based; conditions: dose 1.5-4.5 µM
[28] = system: MCF7; assay: Induction of ferroptosis in human MCF7 cells assessed as decrease in GPX4 expression at 3 uM incubated for 24 hrs in presence of fer-1 by Western blot analysis; format: functional, cell-based
[29] = system: MCF7; assay: Cytotoxicity in Nur77 knockout human MCF7 cells at 1 to 3 uM incubated for 24 hrs by MTT assay; format: functional, cell-based; conditions: dose 1-3 µM
[30] = Toxicity in nude BALB/c mouse xenografted with human MCF7 cells assessed as change in body weight at 10 to 20 mg/kg/day, IG administered on alternative days for 21 days; format: organism-based; conditions: in vivo, po, 504 h, dose 10-20 mg/kg/day, time 21 day
[31] = system: MCF7; assay: Antiproliferative activity against Nur77 knockout human MCF7 cells at 3 uM incubated for 24 hrs by EdU staining based analysis; format: functional, cell-based
[32] = system: MCF7; assay: Induction of ferroptosis in Nur77 knockout human MCF7 cells assessed as accumulation of lipid peroxidation at 3 uM incubated for 24 hrs by BODIPYTM 581/591C11 probe based inverted fluorescence microscopic analysis; format: functional, cell-based
[33] = system: MCF7; assay: Induction of ferroptosis in human MCF7 cells assessed as increase in malondialdehyde level at 1.5 to 4.5 uM incubated for 24 hrs by MDA assay; format: functional, cell-based; conditions: dose 1.5-4.5 µM
[34] = system: HepG2; assay: Induction of ferroptosis in human HepG2 cells assessed as decrease in GPX4 expression at 3 uM incubated for 24 hrs by Western blot analysis; format: functional, cell-based
[35] = system: MCF7; assay: Induction of ferroptosis in Nur77 knockout human MCF7 cells assessed as […] incubated for 24 hrs by Western blot analysis; format: functional, cell-based
[36] = Half life in nude BALB/c mouse at 20 mg/kg, IG measured after 24 hrs; format: ADME, organism-based; conditions: in vivo, po
[37] = system: MCF7; assay: Anticancer activity in human MCF7 cells assessed as reduction in cell viability at 3 uM in presence of fer-1 by MTT assay; format: functional, cell-based
[38] = system: MDA-MB-231; assay: cells; conditions: Homo sapiens, MDA-MB-231, 24 h
Description: Antiproliferative activity against human MDA-MB-231 cells assessed as inhibition of cell growth incubated for 24 hrs by MTT assay

[39] = AUC (0 to infinity) in nude BALB/c mouse at 20 mg/kg, IG measured after 24 hrs; format: ADME, organism-based; conditions: in vivo, po
[40] = system: MCF7; assay: Induction of apoptosis in human MCF7 cells assessed as early apoptotic cells at 6 uM incubated for 24 hrs by Annexin V-FITC/PI staining based flow cytometry analysis (Rvb =0.82%); format: functional
[41] = system: MCF7; assay: Induction of ferroptosis in human MCF7 cells assessed as accumulation of lipid peroxidation at 3 uM incubated for 24 hrs by BODIPYTM 581/591C11 probe based inverted fluorescence microscopic analysis; format: functional, cell-based
[42] = system: T47D; assay: cells; conditions: Homo sapiens, 24 h
Description: Antiproliferative activity against human T47D cells assessed as inhibition of cell growth incubated for 24 hrs by MTT assay

[43] = system: MCF7; assay: Induction of ROS production in human MCF7 cells at 3 uM incubated for 24 hrs by DCFH-DA staining based flow cytometric analysis; format: functional, cell-based
[44] = Cytotoxicity in human MCF-10A cells assessed as inhibition of cell growth by MTT assay; format: toxicity, cell-based
[45] = system: MCF7; assay: Induction of apoptosis in human MCF7 cells assessed as viable cells at 3 uM incubated for 24 hrs by Annexin V-FITC/PI staining based flow cytometry analysis (reference value: 98.1%); format: functional; conditions: read-out: Activity

## O=C(Nc1ccc(C(=O)N/N=C/c2cccc(Cl)c2)cc1)Nc1ccc2ncccc2c1
[1]
  Activity: Active
[2]
  Activity: inactive
[3]
  Activity: Active
[4]
  pIC50: 5.49
[5]
  inhibition at 4.5 µM: 100%
[6]
  inhibition in vivo at 20 mg/kg/day: 49%
[7]
  Activity: Active
[8]
  Activity: Non-toxic
[9]
  Activity: Active
[10]
  Activity: 1.65%
[11]
  Activity: Active
[12]
  Activity: 4.1%
[13]
  pIC50: < 4.30
[14]
  inhibition at 50 µM: 81%
[15]
  pIC50: 5.64
[16]
  Activity: Active
[17]
  pIC50: 5.41
[18]
  Activity: Active
[19]
  inhibition in vivo at 10 mg/kg/day: 43.5%
[20]
  Activity: 0.8%
[21]
  viability at 6 µM: 94.3%
[22]
  Activity: inactive
[23]
  Cmax: 37.5 ng/mL
[24]
  Activity: 0.34%
[25]
  pIC50: 5.67
[26]
  Activity: 0.27%
[27]
  Activity: Active
[28]
  Activity: Active
[29]
  Activity: Active; Compound Showed Weak Activity Compared To Wild-Type Cells
[30]
  Activity: Non-toxic
[31]
  Activity: Active; Compound Showed Weak Activity Compared To Wild-Type Cells
[32]
  Activity: inactive
[33]
  Activity: Active
[34]
  Activity: Active
[35]
  Activity: Active
[36]
  half-life: 1.49 h
[37]
  Activity: Active
[38]
  pIC50: 5.50
[39]
  AUC(0-inf): 58.8 ng·h/mL
[40]
  Activity: 1.29%
[41]
  Activity: Active
[42]
  pIC50: 5.25
[43]
  Activity: Active
[44]
  pIC50: < 4.30
[45]
  viability at 3 µM: 97.3%
